What all share (format): cell-based, human
The test system of one data set is PC3-CXCR4.5 cells. In words: MIP3α secretion by PC3-CXCR4.5 cells (CXCR4-overexpressing clone), assessed by ELISA. Particulars: for induced MIP3α secretion after silencing of CXCR4 expression: CXCL12 500 ng/ml or 4F-benzoyl-TN14003 8 μM for additional 48 hours. The protocol:
(§1) In this example, regulation of the chemokine MIP3α (macrophage inflammatory protein 3α) was examined. […] In FIG. 1B, PC3 (left panel) and PC3-CXCR4.5 (right panel) cells were stimulated with the indicated concentrations of CXCL12 for 48 hours and MIP3α secretion was assessed by ELISA. The results represent the average of triplicates±STDEV.
(§2) The effects of the CXCR4 antagonist AMD3100 and of 4F-benzoyl-TN14003 (4FB-TN14003), hitherto known as a CXCR4 antagonist, on MIP3α secretion were further tested. […] In FIG. 1C, CXCR4 signaling in PC3 (left panel) and PC3-CXCR4.5 (right panel) cells was inhibited with anti-CXCL12 antibodies (αCXCL12) and Pertussis toxin (PTX) treatments alone or in combination with CXCL12, as indicated. Secretion of MIP3α was assessed by ELISA. The results represent the average of triplicates±STDEV.
(§3) The Dicer-substrate siRNA duplexes of CXCR4 (NCBI accession number NM 003467): sense 5′-[…]-3′ (SEQ ID NO:78), antisense 5′ […]-3′ (SEQ ID NO:79) were purchased from IDT, Coralville, Iowa. The non-specific siRNA duplexes were used as a control. PC3-CXCR4.5 cells were transfected with 200 nmol/L siRNA in serum-free medium using Oligofectamine reagent (Invitrogen, Carlsbad, Calif., USA), according to the manufacturer's instructions. To determine the efficiency of CXCR4RNA interference, at 48 hours post-transfection, the cells were analyzed for CXCR4 expression on mRNA and cell-surface levels.
In FIG. 2C, control (gray) and CXCR4 (black) siRNA-transfected PC3-CXCR4.5 cells at 48 hours post-transfection were incubated with CXCL12 500 ng/ml and 4F-benzoyl-TN14003 8 μM (4FB-TN14003) for additional 48 hours. MIP3α secretion was assessed by ELISA. The results represent the average of triplicates±STDEV.
On the technique in general: ELISA stands for enzyme-linked immunosorbent assay.

In the next data set the test system is NB4. In words: MIP3α secretion by NB4 cells, ELISA. Particulars: following stimulation. The protocol:
(§4) The expression of MIP3α in a range of carcinoma cell lines and normal epithelial cells was tested by ELISA. […] Bone marrow endothelial cells, BMEC, glioblastoma cells U87, breast carcinoma cells MDA231, also were negative for MIP3α secretion. […] In addition, MIP3α was also secreted by normal keratinocytes (FIG. 4D) and primary blasts from peripheral blood of patients with AML (FIG. 4C). In FIG. 4, acute promyelocytic leukemia cell lines NB4 (FIG. 4A) and HL60 (FIG. 4B), primary peripheral blasts from the patient with acute myelocytic leukemia (FIG. 4C) and normal keratinocytes (FIG. 4D) were stimulated with the indicated concentration of CXCL12 for 48 hours. The secretion of MIP3α was assayed by ELISA. The results of experiments with NB4, HL60 and keratinocytes represent the average of triplicates±STDEV. […] Secretion of MIP3α was assessed by ELISA. […] The results represent the average of triplicates±STDEV.

The next data set has as its system PC3 cells. In words: MIP3α secretion by PC3 cells, assessed by ELISA. The protocol:
as §1, §2

For a further data set, the system named is HL-60. In words: MIP3α secretion by HL-60 cells, ELISA. Particulars: following stimulation. The protocol:
as §4

In another data set the test system is normal keratinocytes. In words: MIP3α secretion by normal keratinocytes, ELISA. Particulars: following stimulation. The protocol: as §4
In another data set the test system is CXCR4. In words: CXCR4 silencing by siRNA in PC3-CXCR4.5 cells (RT-PCR and FACS). Particulars: 200 nmol/L siRNA, 48 hours post-transfection. On the procedure:
as §3
In FIG. 2A, PC3-CXCR4.5 cells 48 hours following the transfection with CXCR4-specific siRNA were stained for the control and CXCR4 antibodies and evaluated by FACS. Left panel, non-transfected cells; middle panel, cells transfected with a control (non-specific) siRNA; right panel, cells transfected with a siRNA directed to CXCR4 (CXCR4 siRNA). Cells were stained for the control (IgG2a-PE, full histograms) and CXCR4 antibodies (IgG2a-12G5, empty histograms).
In FIG. 2B, RT-PCR analysis of CXCR4 of the siRNA-transfected PC3-CXCR4.5 cells 48 hours following the transfection is presented. […] Gene expression was determined using primers specific to CXCR4, or to the housekeeping gene β-actin as a control. […]

Setting [1] is: CXCR4 siRNA-transfected PC3-CXCR4.5 cells.

We go through five compounds from patent publication US8663651B2, “T-140 peptide analogs having CXCR4 super-agonist activity for immunomodulation” (Biokine Therapeutics Ltd., priority 2006, dated 2014).

Square brackets hold non-standard residues; d marks the D form. * marks the point of attachment. Benzoyl(4-F) = O=C(c1ccc(F)cc1)*; Cit = NC(=O)NCCC[C@H](N)C(=O)O

In the case of “4F-benzoyl-Arg-Arg-Nal-Cys-Tyr-Cit-Lys-DLys-Pro-Tyr-Arg-Cit-Cys-Arg-NH2 ({Benzoyl(4-F)}-RR[Nal]CY[Cit]K[dK]PYR[Cit]CR-NH2; cysteine pairing not given here) [4F-benzoyl-TN14003]”, the “induced MIP3α secretion after silencing of CXCR4 expression” value in the data set on PC3-CXCR4.5 cells (setting [1]) is on record as “inhibited”. Further, the “induction of MIP3α secretion in an agonist manner” value in the data set with PC3-CXCR4.5 cells (PC3-CXCR4.5 cells) and with PC3 cells (PC3 cells) was “induced in both cell lines MIP3α secretion in an agonist manner” each time. In addition, in the data set with PC3-CXCR4.5 cells (concluded from CXCR4-dependent MIP3α secretion in PC3-CXCR4.5 cells), the “mode of action on CXCR4” value is reported as “super agonist for CXCR4”. In addition, the MIP3α secretion entry in the data set on NB4, in the data set on HL-60 and in the data set with normal keratinocytes was “increased” each time.
As for `c1cc(CN2CCCNCCNCCCNCC2)ccc1CN1CCCNCCNCCCNCC1` [AMD3100, reference compound], in the data set with PC3-CXCR4.5 cells (PC3-CXCR4.5 cells), the “induction of MIP3α secretion in an agonist manner” value is given as “but not AMD3100 induced”.
On to “CXCL12: chemokine, CXCR4's only natural ligand”, for which, in the data set on PC3-CXCR4.5 cells (CXCR4-expressing cell lines (general statement)), the “extent of MIP3α secretion induction compared with 4F-benzoyl-TN14003” value is on record as “to a lesser extent than 4F-benzoyl-TN14003”. Further, in the data set on PC3-CXCR4.5 cells (setting [1]), the “induced MIP3α secretion after silencing of CXCR4 expression” value is “inhibited”. Besides, the MIP3α secretion result in the data set on PC3-CXCR4.5 cells (PC3-CXCR4.5 cells stimulated with increasing doses of CXCL12 for 48 hours) is “increased the secretion of MIP3α”; with NB4, “increased”; in the data set on PC3 cells (PC3 cells stimulated with increasing doses of CXCL12 for 48 hours) it was “increased the secretion of MIP3α”; with HL-60 it was “increased”; in the data set on normal keratinocytes, “increased”.
As to Pertussis toxin [reference compound], the MIP3α secretion entry with PC3-CXCR4.5 cells (PC3-CXCR4.5 cells, in combination with CXCL12) is on record as “did not demonstrate an inhibitory effect on the level of MIP3α”; in the data set on PC3-CXCR4.5 cells (PC3-CXCR4.5 cells, treatment alone), “secretion of MIP3α was decreased”; with PC3 cells (PC3 cells, treatment alone or in combination with CXCL12), “effectively inhibited the secretion of MIP3α”.
Regarding “siRNA specific for CXCR4: Dicer-substrate siRNA duplexes of CXCR4 (SEQ ID NO:78 sense, SEQ ID NO:79 antisense), purchased from IDT (sense UAAAAUCUUCCUGCCCACCAUCUAC; antisense GUAGAUGGUGGGCAGGAAGAUUUUAUU; Dicer-substrate duplex, purchased, chemistry not given here) [reference compound]”, the “spontaneous MIP3α secretion after silencing of CXCR4 expression” value in the data set on PC3-CXCR4.5 cells (setting [1]) is “inhibited the spontaneous”. The “CXCR4 mRNA and cell surface expression” value in the data set with CXCR4 was “reduced CXCR4 mRNA and cell surface expression”.
